How the values were obtained:
Format in all cases: in vivo
[1] = test system: Spodoptera littoralis (Egyptian cotton leaf worm); experiment: Example B1: Spodoptera littoralis larvicide, feeding/residual contact, preventive (cotton leaf discs); details: foliar, 72 h, L1 larvae on sprayed cotton leaf discs, 3 days after treatment, read-out: activity (mortality, repellent effect, feeding behaviour, growth regulation)
From the text: Example B1: Activity Against Spodoptera littoralis (Egyptian Cotton Leaf Worm)
Larvicide, Feeding/Residual Contact Activity, Preventive
Cotton leaf discs were placed on agar in a 24-well microtiter plate and sprayed with test solutions.
After drying, the leaf discs were infested with 5 L1 larvae. The samples were checked for mortality, repellent effect, feeding behaviour, and growth regulation 3 days after treatment (DAT).

[2] = test system: Plutella xylostella (diamond back moth); experiment: Example B3: Plutella xylostella larvicide, feeding/residual contact, preventive (artificial diet); details: 120 h, L2 larvae on artificial diet, 5 days incubation, read-out: activity (larval mortality, antifeedant, growth regulation)
Method: Example B3: Activity Against Plutella xylostella (Diamond Back Moth)
(Larvicide, Feeding/Residual Contact Activity, Preventive)
24-well microtiter plate (MTP) with artificial diet was treated with test solutions by pipetting. After drying, the MTPs were infested with L2 larvae (10-15 per well). After an incubation period of 5 days, samples were checked for larval mortality, antifeedant and growth regulation.

[3] = test system: Diabrotica balteata (corn root worm); experiment: Example B4: Diabrotica balteata larvae L2 on maize sprouts, feeding/contact, preventative; details: 120 h, L2 larvae on sprayed maize sprouts, 5 days incubation, read-out: activity (larval mortality, growth regulation)
Method: Example B4: Activity Against Diabrotica Balteata (Corn Root Worm)
(Larvae L2 on Maize Sprouts, Feeding/Contact, Preventative)
Maize sprouts, placed on an agar layer in 24 well micro titer plates were treated with test solutions by spraying. After drying, the MTPs were infested with L2 larvae (6-10 per well). After an incubation period of 5 days, samples were checked for larval mortality and growth regulation.

[4] = test system: Spodoptera littoralis (Egyptian cotton leaf worm); experiment: Example B2: Spodoptera littoralis systemic activity (lettuce on agar); details: 120 h, systemic via lettuce roots, 5 days after infestation, read-out: activity (mortality, repellent effect, feeding behavior, growth regulation)
From the text: Example B2: Activity Against Spodoptera littoralis (Egyptian Cotton Leaf Worm)
Test compounds were applied by pipette into 24 well plates and mixed with agar. Lettuce seeds were placed on the agar and the multi well plate is closed by another plate which contains also agar. After 7 days the roots have absorbed the compound and the lettuce has grown into the lid plate. The lettuce leaves were now cut off into the lid plate. Spodoptera eggs were pipetted through a plastic stencil on a humid gel blotting paper and the plate closed with it. The samples are checked for mortality, repellent effect, feeding behavior, and growth regulation 5 days after infestation.

[5] = test system: Myzus persicae (green peach aphid); experiment: Example B5: Myzus persicae feeding/residual contact, preventive, mixed population (sunflower leaf discs); details: foliar, 144 h, mixed population on sprayed sunflower leaf discs, 6 DAT, read-out: activity (mortality, special effects)
Method: Example B5: Activity Against Myzus persicae (Green Peach Aphid)
(Feeding/Residual Contact Activity, Preventive), Mixed Population
(§1) Sunflower leaf discs were placed on agar in a 24-well microtiter plate and sprayed with test solutions. After drying, the leaf discs were infested with an aphid population of mixed ages. After an incubation period of 6 DAT, samples were checked for mortality and special effects (e.g. phytotoxicity).

[6] = test system: Bemisia tabaci (cotton white fly); experiment: Example B9: Bemisia tabaci adulticide contact activity, preventative; details: foliar, 168 h, adult white flies on sprayed cotton leaf discs, 7 DAT, read-out: activity (mortality, special effects)
Method: Example B9: Activity Against Bemisia tabaci (Cotton White Fly)
(Adulticide Contact Activity, Preventative), Adult
Cotton leaf discs were placed on agar in a 24-well microtiter plate and sprayed with test solutions. After drying, the leaf discs were infested with adult white flies. After an incubation period of 7 DAT, samples were checked for mortality and special effects (e.g. phytotoxicity).

[7] = test system: Myzus persicae (green peach aphid); experiment: Example B7: Myzus persicae systemic/feeding activity, curative, mixed population (pea seedlings); details: 144 h, roots of infested pea seedlings in test solution, 6 days after introduction, read-out: activity (mortality, special effects on the plant)
From the text: Example B7: Activity Against Myzus persicae (Green Peach Aphid)
(Systemic/Feeding Activity, Curative), Mixed Population
Roots of pea seedlings, infested with an aphid population of mixed ages, were placed directly in the test solutions. 6 days after introduction, samples were checked for mortality and special effects on the plant.

[8] = test system: Myzus persicae (green peach aphid); experiment: Example B6: Myzus persicae feeding activity sachet test, mixed population; details: 120 h, sachet test in sucrose solution, 5 days after infestation
From the text: Example B6: Activity Against Myzus persicae (Green Peach Aphid)
(Feeding Activity Sachet Test), Mixed Population
Test compounds were applied by pipette into 24 well plates and mixed with Sucrose solution. The plates were closed with a stretched Parafilm. A plastic stencil with 24 holes is placed onto the plate and infested pea seedlings were placed directly on the Parafilm. The infested plate is closed with a gel blotting paper and another plastic stencil and then turned upside down. 5 days after infestation the samples were checked on mortality. Application rate: 12.5 ppm.

[9] = test system: Thrips tabaci (onion thrips); experiment: Example B8: Thrips tabaci mixed population, feeding/residual contact, preventive; details: foliar, 168 h, mixed population on sprayed sunflower leaf discs, 7 days incubation, read-out: activity (mortality, special effects)
Method: Example B8: Activity Against Thrips tabaci (Onion Thrips)
(Mixed Population, Feeding/Residual Contact Activity, Preventive)
as §1, with “a thrips” for “an aphid”, “7 days,” for “6 DAT,”

Row | Compound | mortality at 400 ppm [1] | mortality at 400 ppm [2] | mortality at 400 ppm [3] | mortality at 400 ppm [5] | also measured
1 | CCS(=O)(=O)c1cc(C(F)(F)F)cnc1-c1nnc(-c2ccc(C(F)(F)F)cc2)n1C [Compound P5] | > 80% | > 80% | > 80% |  | mortality at 12.5 ppm [4]: ≥ 80%
2 | CCS(=O)(=O)c1cc(C(F)(F)F)cnc1-c1nnc(-c2cccc(C(F)(F)F)c2)n1C [Compound P7] | > 80% | > 80% | > 80% | > 80% | mortality at 400 ppm [6]: > 80%; mortality at 24 ppm [7]: ≥ 80%; mortality at 12.5 ppm [4]: ≥ 80%; mortality at 12.5 ppm [8]: ≥ 80%
3 | CCS(=O)(=O)c1cc(C(F)(F)F)cnc1-c1nnc(-c2ccnc(C(F)(F)F)c2)n1C [Compound P8] |  |  |  | > 80% | mortality at 400 ppm [6]: > 80%; mortality at 24 ppm [7]: ≥ 80%
4 | CCS(=O)(=O)c1cc(C(F)(F)F)cnc1-c1nnc(-c2ccc(C(F)(F)F)cn2)n1C [Compound P10] | > 80% |  | > 80% |  | 
5 | CCS(=O)(=O)c1cc(C(F)(F)F)cnc1-c1nnc(-c2cc(C(F)(F)F)cc(C(F)(F)F)c2)n1C [Compound P12] | > 80% | > 80% |  |  | 
6 | CCS(=O)(=O)c1cc(C(F)(F)F)cnc1-c1nnc(-c2ccc(F)c(Cl)c2)n1C [Compound P15] | > 80% |  | > 80% | > 80% | mortality at 12.5 ppm [8]: ≥ 80%
7 | CCS(=O)(=O)c1cc(C(F)(F)F)cnc1-c1nnc(-c2cc(Cl)cc(Cl)c2)n1C [Compound P16] | > 80% |  | > 80% | > 80% | 
8 | CCS(=O)(=O)c1cc(C(F)(F)F)cnc1-c1nnc(-c2cc(C(F)(F)F)ccc2F)n1C [Compound P19] |  |  |  | > 80% | 
9 | CCS(=O)(=O)c1cc(C(F)(F)F)cnc1-c1nnc(-c2cccc(OC(F)(F)F)c2)n1C [Compound P20] | > 80% |  | > 80% | > 80% | mortality at 12.5 ppm [8]: ≥ 80%
10 | CCS(=O)(=O)c1cc(C(F)(F)F)cnc1-c1nnc(-c2ccc(C(F)(C(F)(F)F)C(F)(F)F)cc2)n1C [Compound P21] | > 80% |  | > 80% |  | 
11 | CCS(=O)(=O)c1cc(C(F)(F)F)cnc1-c1nnc(-c2ccc(Cl)c(F)c2)n1C [Compound P22] | > 80% |  | > 80% | > 80% | mortality at 12.5 ppm [8]: ≥ 80%
12 | CCS(=O)(=O)c1cc(C(F)(F)F)cnc1-c1nnc(-c2cccc(C(F)(F)Cl)c2)n1C [Compound P24] | > 80% | > 80% | > 80% | > 80% | mortality at 12.5 ppm [8]: ≥ 80%
13 | CCS(=O)(=O)c1cc(C(F)(F)F)cnc1-c1nnc(-c2cccc3c2OC(F)(F)O3)n1C [Compound P30] |  |  |  | > 80% | mortality at 12.5 ppm [8]: ≥ 80%
14 | CCS(=O)(=O)c1cc(C(F)(F)F)cnc1-c1nnc(-c2ccc(OC(F)(F)F)cc2)n1C [Compound P33] | > 80% | > 80% |  | > 80% | mortality at 12.5 ppm [4]: ≥ 80%; mortality at 12.5 ppm [8]: ≥ 80%
15 | CCS(=O)(=O)c1cc(C(F)(F)F)cnc1-c1nnc(-c2cccc(C#N)c2)n1C [Compound P34] |  |  |  | > 80% | mortality at 24 ppm [7]: ≥ 80%
16 | CCS(=O)(=O)c1cc(C(F)(F)F)cnc1-c1nnc(-c2ccc(C#N)cc2)n1C [Compound P35] |  |  | > 80% |  | mortality at 24 ppm [7]: ≥ 80%

Row | Compound | mortality at 400 ppm [1] | mortality at 400 ppm [2] | mortality at 400 ppm [3] | mortality at 400 ppm [5] | also measured
17 | CCS(=O)(=O)c1cc(C(F)(F)F)cnc1-c1nnc(-c2ccc(Cl)c(Cl)c2)n1C [Compound P46] | > 80% |  | > 80% | > 80% | 
18 | CCSc1cc(C(F)(F)F)cnc1-c1nnc(-c2cccc(C(F)(F)F)n2)n1C [Compound P49] |  |  |  |  | mortality at 400 ppm [6]: > 80%
19 | CCS(=O)(=O)c1cc(C(F)(F)F)cnc1-c1nnc(-c2ccc(C(F)F)cc2)n1C [Compound P53] |  |  |  | > 80% | 
20 | CCSc1cc(C(F)(F)F)ccc1-c1nnc(-c2ccc(C(F)(F)F)nc2)n1C [Compound P54] |  |  | > 80% |  | 
21 | CCS(=O)(=O)c1cc(C(F)(F)F)ccc1-c1nnc(-c2ccc(C(F)(F)F)nc2)n1C [Compound P55] |  |  | > 80% | > 80% | mortality at 24 ppm [7]: ≥ 80%
22 | CCS(=O)(=O)c1cc(C(F)(F)F)cnc1-c1nnc(-c2ccc3c(c2)OC(F)(F)O3)n1C [Compound P56] | > 80% |  | > 80% |  | 
23 | CCS(=O)(=O)c1cc(OC(F)F)cnc1-c1nnc(-c2ccc(C(F)(F)F)nc2)n1C [Compound P58] |  |  |  | > 80% | mortality at 400 ppm [6]: > 80%; mortality at 24 ppm [7]: ≥ 80%
24 | CCS(=O)(=O)c1cc(C(F)(F)F)cnc1-c1nnc(-c2ccc(C(F)(F)F)c(C(F)(F)F)c2)n1C [Compound P61, 2-[5-[3,4-bis(trifluoromethyl)phenyl]-4-methyl-1,2,4-triazol-3-yl]-3-ethylsulfonyl-5-(trifluoromethyl)pyridine] | > 80% | > 80% | > 80% | > 80% | mortality at 400 ppm [6]: > 80%
25 | CCS(=O)(=O)c1cc(C(F)(F)F)cnc1-c1nnc(-c2cc(C(F)(F)F)cc(Cl)n2)n1C [Compound P63] | > 80% |  | > 80% |  | 
26 | CCSc1cc(C(F)(F)F)cnc1-c1nnc(-c2cc(C(F)(F)F)ccn2)n1CC [Compound P64] | > 80% |  | > 80% |  | 
27 | CCS(=O)(=O)c1cc(OC(F)F)cnc1-c1nnc(-c2cc(C(F)(F)F)ccn2)n1C [Compound P66] | > 80% | > 80% | > 80% | > 80% | mortality at 24 ppm [7]: ≥ 80%; mortality at 12.5 ppm [4]: ≥ 80%
28 | CSc1cc(C(F)(F)F)cnc1-c1nnc(-c2cc(C(F)(F)F)ccn2)n1C [Compound P70] |  |  | > 80% |  | 
29 | Cn1c(-c2cc(C(F)(F)F)ccn2)nnc1-c1ncc(C(F)(F)F)cc1S(C)(=O)=O [Compound P71] | > 80% | > 80% | > 80% | > 80% | mortality at 24 ppm [7]: ≥ 80%
30 | Cn1c(-c2cc(C(F)(F)F)ccn2)nnc1-c1ncc(C(F)(F)F)cc1S(=O)(=O)CC1CC1 [Compound P72] |  | > 80% |  |  | mortality at 400 ppm [9]: > 80%
31 | Cn1c(-c2cc(C(F)(F)F)ccn2)nnc1-c1ncc(C(F)(F)F)cc1SCC1CC1 [Compound P76] |  | > 80% | > 80% |  | mortality at 400 ppm [9]: > 80%

From patent US9926294B2, “Pesticidally active heterocyclic derivatives with sulphur containing substituents” (Syngenta Participations AG, priority 2014, dated 2018)
